Here are results for 2 molecules from ChEMBL document CHEMBL4619785, “Advantages of the Parent Nucleoside GS-441524 over Remdesivir for Covid-19 Treatment” (ACS Med Chem Lett, 2020).

Molecules are shown by their SMILES. Bounds are passed on as bounds.

A short description of data set [1]: Cytotoxic activity in HAE cells. In kind it is cell-based. The note with it: human.
Data set [2] relates to Feline coronavirus. The data set can be described thus: Antiviral activity against Feline corona virus infected in CRFK cells. In kind it is functional, organism-based. The note with it: Alphacoronavirus 1, CRFK.
Data set [3] concerns SARS-CoV. The data set can be described thus: Antiviral activity against SARS coronavirus infected in primary HAE cells. In kind it is functional, organism-based. The note with it: Severe acute respiratory syndrome-related coronavirus.
Data set [4] deals with Middle East respiratory syndrome-related coronavirus. The data set can be described thus: Antiviral activity against Middle East respiratory syndrome coronavirus infected in primary HAE cells. In kind it is functional, organism-based.
Data set [5] can be described thus: in vivo. To be noted: mouse.
Data set [6] is described as follows: in vivo. To be noted: rhesus monkey, serum, iv.

The molecule `N#C[C@@]1(c2ccc3c(N)ncnn23)O[C@H](COP(=O)(O)OP(=O)(O)OP(=O)(O)O)[C@@H](O)[C@H]1O` [RDV-TP] gave a CC50 in data set [1] of more than 100000 nM. The EC50 was 780 nM in data set [2], 180 nM in data set [3] and 860 nM in data set [4].
In turn, `CCC(CC)COC(=O)[C@H](C)N[P@](=O)(OC[C@H]1O[C@@](C#N)(c2ccc3c(N)ncnn23)[C@H](O)[C@@H]1O)Oc1ccccc1` [REMDESIVIR] gave a CC50 in data set [1] of more than 10000 nM. The values for the half-life in data set [5] and in data set [6] were 25 min and 24 min, respectively. Moreover, the EC50 in data set [3] turned out to be 69 nM; in data set [4] it was 74 nM.
